IC50 data for eleven compounds are collected here from ChEMBL document CHEMBL1135759, “Exploring the role of bromine at C(10) of (+)-4-[2-[4-(8-chloro-3,10-dibromo- 6,11-dihydro-5H-benzo[5,6]cyclohepta[1,2-b]pyridin-11(R)-yl)-1-piperidinyl]-2- oxoethyl]-1-piperidinecarboxamide (Sch-66336): the discovery of indolocycloheptapyridine inhibitors of farnesyl protein transferase” (J Med Chem, 2002).

A word on the IC50: it is the point on the concentration scale where inhibition reaches its midpoint. A high value points to a need for much substance.

The target of this experiment is Protein farnesyltransferase (Homo sapiens, UniProt P49354+P49356). The experiment is described as follows: Inhibition of Protein farnesyltransferase in an enzyme assay with His6-H-Ras-CVLS.
In turn, `CCCCc1c[nH]c2c(Cl)cc3c(c12)[C@@H](C1CCN(C(=O)Cc2cc[n+]([O-])cc2)CC1)c1ncccc1CC3` (stereo in doubt; (+)-10c) registered an IC50 of 69 nM.

In turn, `O=C(Cc1cc[n+]([O-])cc1)N1CCC(C2c3ncccc3CCc3cc(Cl)c4[nH]ccc4c32)CC1` (single isomer, unassigned; (+)) had an IC50 of 42 nM.

`Cc1cn(C)c2c(Cl)cc3c(c12)C(C1CCN(C(=O)Cc2cc[n+]([O-])cc2)CC1)c1ncccc1CC3` (single isomer, unassigned; (+)) returned an IC50 greater than 190 nM.

Take `CCCc1c[nH]c2c(Cl)cc3c(c12)[C@@H](C1CCN(C(=O)Cc2cc[n+]([O-])cc2)CC1)c1ncccc1CC3` (stereo in doubt; (-)-10b): the half-maximal inhibitory concentration (IC50) was greater than 190 nM.

For the compound `Cc1c[nH]c2c(Cl)cc3c(c12)[C@@H](C1CCN(C(=O)Cc2cc[n+]([O-])cc2)CC1)c1ncccc1CC3` (stereo in doubt; (+)-10a), 7.4 nM corresponded to half-maximal inhibition (IC50).

As for `Cc1c[nH]c2c(Cl)cc3c(c12)[C@@H](C1CCN(C(=O)Cc2cc[n+]([O-])cc2)CC1)c1ncccc1CC3` (stereo in doubt; (-)-10a), the half-inhibitory concentration (IC50) turned out to be 28 nM.

In turn, `CCCCc1c[nH]c2c(Cl)cc3c(c12)[C@@H](C1CCN(C(=O)Cc2cc[n+]([O-])cc2)CC1)c1ncccc1CC3` (stereo in doubt; (-)-10c) displayed an IC50 greater than 180 nM.

With `O=C(Cc1cc[n+]([O-])cc1)N1CCC([C@@H]2c3ccc(Cl)cc3CCc3cc(Br)cnc32)CC1`, 34 nM corresponded to half-maximal inhibition (IC50).

Regarding `CCCc1c[nH]c2c(Cl)cc3c(c12)[C@@H](C1CCN(C(=O)Cc2cc[n+]([O-])cc2)CC1)c1ncccc1CC3` (stereo in doubt; (+)-10b), inhibition was half-maximal at 65 nM (IC50).

`O=C(Cc1cc[n+]([O-])cc1)N1CCC([C@H]2c3ncccc3CCc3cc(Cl)cc(Br)c32)CC1` returned an IC50 of 19 nM.

In turn, `Cc1c[nH]c2c(Cl)cc3c(c12)[C@@H](C1CCN(C(=O)Cc2cc[n+]([O-])cc2)CC1)c1ncc(Br)cc1CC3` showed a 50% inhibitory concentration (IC50) of 2.6 nM.
